Results reported in patent publication US20240279218A1 (Hoffmann-La Roche Inc., priority 2016, published 2024).

Experiments:
h-GABA-A α5β3γ2 [1] = biological target: T1, h-GABA-A α5β3γ2 (Homo sapiens (Human), UniProt P18507+P31644); experiment: [3H]flumazenil competition binding assay, membranes of HEK293 cells expressing human GABAA receptors; settings: displacement of [3H]flumazenil 0.5 nM, HEK293 cells expressing human receptors, mean of two determinations; read-out: Ki h-GABA-A α5β3γ2
Method: The affinity of compounds at GABAA receptor subtypes was measured by competition for [3H]flumazenil (85 Ci/mmol; Roche) binding to HEK293 cells expressing rat (stably transfected) or human (transiently transfected) receptors of composition α1β3γ2, α2β3γ2, α3β3γ2 and α5β3γ2.
Cell pellets were suspended in Krebs-tris buffer (4.8 mM KCl, 1.2 mM CaCl2, 1.2 mM MgCl2, 120 mM NaCl, 15 mM Tris; pH 7.5; binding assay buffer), homogenized by polytron for ca. 20 sec on ice and centrifuged for 60 min at 4° C. (50000 g; Sorvall, rotor: SM24=20000 rpm). The cell pellets were resuspended in Krebs-tris buffer and homogenized by polytron for ca. 15 sec on ice. Protein was measured (Bradford method, Bio-Rad) and aliquots of 1 mL were prepared and stored at −80° C.
Assays were incubated to equilibrium for 1 hour at 4° C. and harvested onto GF/C uni-filters (Packard) by filtration using a Packard harvester and washing with ice-cold wash buffer (50 mM Tris; pH 7.5). After drying, filter-retained radioactivity was detected by liquid scintillation counting. Ki values were calculated using Excel-Fit (Microsoft) and are the means of two determinations.

h-GABA-A α5β3γ2 [2] = biological target: T1, h-GABA-A α5β3γ2; experiment: Two-electrode voltage clamp electrophysiology in Xenopus oocytes expressing GABAA receptors, modulation of GABA EC20 current; assay type: cell-based; settings: Xenopus oocytes; for Efficacy (GABA) %: % modulation of GABA EC20 = 100*(Fold increase−1); for Fold increase h-GABA-A α5β3γ2 oocyte: GABA EC20, test compound at approx. 30 fold its Ki
Method: Xenopus laevis oocytes at maturation stages V-VI were used for the expression of cloned mRNA encoding GABAA receptor subunits. Oocytes ready for RNA micro-injection were bought from Ecocyte, Castrop-Rauxel, Germany and stored in modified Barth's medium (composition in mM: NaCl 88, KCl 1, NaHCO32.4, HEPES 10, MgSO4 0.82, CaNO3 0.33, CaCl2) 0.33, pH=7.5) at 20° C. until the experiment.
Oocytes were plated in 96-well plates to be used in an automated instrument (Robo-ocyte, MultiChannelSystems, Reutlingen, Germany) for microinjection and electrophysiological recordings. Approximately 50 nl of an aqueous solution containing the RNA transcripts for the subunits of the desired GABAA receptor was injected into each oocyte. RNA concentrations ranged between 0.3 and 16 ng/μl/subunit and were adjusted in pilot experiments to obtain GABA responses of a suitable size and a maximal effect of the reference modulator, Beta-CCM (β-CCM), a betacarboline negative allosteric modulator (NAM) at the GABAA receptor benzodiazepine (BZD) binding site or Midazolam, a benzodiazepine positive allosteric modulator (PAM) at the GABAA receptor benzodiazepine (BZD) binding site. The concentration of the γ2 subunit encoding RNA usually was 5-to 10-fold higher than the RNAs encoding the other subunits. Oocytes were kept in modified Barth's medium (composition in mM: NaCl 88, KCl 1, NaHCO3 4, HEPES 10, MgSO4 0.82, CaNO3 0.33, CaCl2 0.33, pH=7.5) at 20° C. until the experiment.
Electrophysiological experiments were performed on days 3 to 5 after the micro-injection of mRNA. During the experiment the oocytes were constantly superfused by a solution containing (in mM) NaCl 90, KCl 1, HEPES 5, MgCl2 1, CaCl2 1 (pH 7.4). Oocytes were impaled by two glass microelectrodes (resistance: 0.4 MΩ) which were filled with a solution containing KCl 1M+K-acetate 1.5 M and voltage-clamped to −80 mV. The recordings were performed at room temperature using the Roboocyte two-electrode voltage clamp system (Multichannelsystem). After an initial equilibration period of 1.5 min GABA was added for 1.5 min at a concentration evoking approximately 20% of a maximal current response (EC20). After another rest interval of 2.5 min GABA was again added evoking a response of similar amplitude and shape. […] Current traces were recorded at a digitization rate of 10 Hz during and shortly before and after the GABA application.
Each compound and concentration was tested on at least 3 oocytes.
For the analysis, the digitized current traces of the first and second GABA response were superimposed and, if necessary, rescaled to equal maximal amplitudes. The ratio between the two responses during the time interval of test compound application was calculated point by point. The extremum of the resulting “ratio trace” was taken as the efficacy (“Fold increase”) of the compound expressed as “% modulation of GABA EC20” (100*(Fold increase−1)).

Structure (SMILES)	Ki (h-GABA-A α5β3γ2 [1])	Efficacy (GABA) % (h-GABA-A α5β3γ2 [2])	Fold increase h-GABA-A α5β3γ2 oocyte (h-GABA-A α5β3γ2 [2])
Cc1ccc(-c2noc(C)c2COc2ccc(C(=O)N[C@@H]3CCOC[C@H]3O)nn2)cn1 [Example 28, N-((3S,4R)-3-hydroxytetrahydropyran-4-yl)-6-((5-methyl-3-(6-methylpyridin-3-yl)isoxazol-4-yl)methoxy)pyridazine-3-carboxamide]	8 nM	52%	1.52
Cc1ccc(-c2noc(C)c2COc2ccc(C(=O)N[C@@H]3CCCC(F)(F)[C@H]3O)cn2)cn1 [Example 131, N-((1R,2S)-3,3-difluoro-2-hydroxycyclohexyl)-6-((5-methyl-3-(6-methylpyridin-3-yl)isoxazol-4-yl)methoxy)pyridine-3-carboxamide]	26 nM	51%	1.51
Cc1ccc(-c2noc(C)c2COc2ccc(C(=O)NC3(C)CC3)nn2)cn1 [Example 76, 6-((5-methyl-3-(6-methylpyridin-3-yl)isoxazol-4-yl)methoxy)-N-(1-methylcyclopropyl)pyridazine-3-carboxamide]	9 nM	92%	1.92
Cc1ccc(-c2noc(C)c2COc2ccc(C(=O)N[C@H]3CC[C@H](OCC(F)F)CC3)nn2)cn1 [Example 194, trans-N-(4-(2,2-difluoroethoxy)cyclohexyl)-6-((5-methyl-3-(6-methylpyridin-3-yl)-1,2-oxazol-4-yl)methoxy)pyridazine-3-carboxamide]	13.3 nM	84%	1.84
Cc1ccc(-c2noc(C)c2COc2ccc(C(=O)N[C@H]3CC[C@](C)(O)CC3)nn2)cn1 [Example 146]	10 nM	78%	1.78
CO[C@H]1C[C@@H](NC(=O)c2ccc(OCc3c(-c4ccc(C)nc4)noc3C)nn2)C1 [Example 164, cis-N-(3-methoxycyclobutyl)-6-((5-methyl-3-(6-methyl-3-pyridyl)isoxazol-4-yl)methoxy)pyridazine-3-carboxamide]	11.5 nM	95%	1.95
Cc1ccc(-c2noc(C)c2COc2cnc(C(=O)N3CC4(C3)CS(=O)(=O)C4)cn2)cn1 [Example 113, (2,2-dioxido-2-thia-6-azaspiro[3.3]heptan-6-yl)(5-((5-methyl-3-(6-methylpyridin-3-yl)isoxazol-4-yl)methoxy)pyrazin-2-yl)methanone]	33.8 nM	28%	1.28
COc1ccc(-c2noc(C)c2COc2ccc(C(=O)NC3CCOCC3)cn2)cn1 [Example 137, 6-((3-(6-methoxypyridin-3-yl)-5-methylisoxazol-4-yl)methoxy)-N-tetrahydropyran-4-yl-pyridine-3-carboxamide]	25.4 nM	55%	1.55
Cc1ccc(-c2noc(C)c2COc2cnc(C(=O)NC3COC3)cn2)cn1 [Example 77, 5-((5-methyl-3-(6-methyl-3-pyridyl)isoxazol-4-yl)methoxy)-N-(oxetan-3-yl)pyrazine-2-carboxamide]	5.2 nM	11%	1.11
Cc1ccc(-c2noc(C)c2COc2ccc(C(=O)NCC(F)(F)F)nn2)cn1 [Example 40, 6-((5-methyl-3-(6-methylpyridin-3-yl)isoxazol-4-yl)methoxy)-N-(2,2,2-trifluoroethyl)pyridazine-3-carboxamide]	10.6 nM	91%	1.91
Cc1ccc(-c2noc(C)c2COc2nnc(C(N)=O)cc2C)cn1 [Example 70, 5-methyl-6-((5-methyl-3-(6-methylpyridin-3-yl)isoxazol-4-yl)methoxy)pyridazine-3-carboxamide]	1.2 nM	54%	1.54
Cc1ccc(-c2noc(C)c2COc2ccc(C(=O)NC3CCCC(O)C3)nn2)cn1 (stereo not drawn) [Example 156, N-(3-hydroxycyclohexyl)-6-((5-methyl-3-(6-methylpyridin-3-yl)isoxazol-4-yl)methoxy)pyridazine-3-carboxamide]	7.8 nM	98%	1.98
Cc1ccc(-c2noc(C)c2COc2ccc(C(=O)N[C@@]3(C)CCOC3)nn2)cn1 (single isomer, unassigned) [Example 81]	10.4 nM	80%	1.8
CCNC(=O)c1ccc(OCc2c(-c3ccc(C)nc3)noc2C)nc1 [Example 3, N-ethyl-6-((5-methyl-3-(6-methyl-3-pyridyl)isoxazol-4-yl)methoxy)pyridine-3-carboxamide]	1.4 nM	41%	1.41
Cc1ccc(-c2noc(C)c2COc2ccc(C(=O)NC(C)C)nn2)cn1 [Example 38, N-isopropyl-6-((5-methyl-3-(6-methylpyridin-3-yl)isoxazol-4-yl)methoxy)pyridazine-3-carboxamide]	7.5 nM	84%	1.84
Cc1ccc(-c2noc(C)c2COc2ccc(C(=O)N[C@@H]3CCCC[C@@H]3O)nn2)cn1 [Example 27, N-((1R,2S)-2-hydroxycyclohexyl)-6-((5-methyl-3-(6-methylpyridin-3-yl)isoxazol-4-yl)methoxy)pyridazine-3-carboxamide]	12.3 nM	54%	1.54
Cc1ccc(-c2noc(C)c2COc2cnc(C(=O)N[C@@H]3CCOC3)cn2)cn1 [Example 89, (R)-5-((5-Methyl-3-(6-methylpyridin-3-yl)isoxazol-4-yl)methoxy)-N-(tetrahydrofuran-3-yl)pyrazine-2-carboxamide]	13.1 nM	31%	1.31
Cc1ccc(-c2noc(C)c2COc2cnc(C(=O)NC(C)(C)CO)cn2)cn1 [Example 73, N-(2-hydroxy-1,1-dimethyl-ethyl)-5-((5-methyl-3-(6-methyl-3-pyridyl)isoxazol-4-yl)methoxy)pyrazine-2-carboxamide]	52.8 nM	45%	1.45
Cc1ccc(-c2noc(C)c2COc2ccc(C(=O)N[C@H]3CCCC[C@@H]3O)nn2)cn1 [Example 24, N-((1S,2S)-2-hydroxycyclohexyl)-6-((5-methyl-3-(6-methylpyridin-3-yl)isoxazol-4-yl)methoxy)pyridazine-3-carboxamide]	41.6 nM	63%	1.63
Cc1ccc(-c2noc(C)c2COc2ccc(C(=O)NC3CCOCC3)nn2)nn1 [Example 193, 6-((5-methyl-3-(6-methylpyridazin-3-yl)isoxazol-4-yl)methoxy)-N-(tetrahydropyran-4-yl)pyridazine-3-carboxamide]	1 nM	64%	1.64
